Results on 17 compounds are retold here after patent US11459312B2, “Sulphur substituted 3-oxo-2,3-dihydropyridazine-4-carboxamides” (Bayer Aktiengesellschaft, priority 2017, dated 2022).

Assay [1] addresses T1, AHR (Homo sapiens, UniProt P35869).
T1 sequence (P35869 11-848): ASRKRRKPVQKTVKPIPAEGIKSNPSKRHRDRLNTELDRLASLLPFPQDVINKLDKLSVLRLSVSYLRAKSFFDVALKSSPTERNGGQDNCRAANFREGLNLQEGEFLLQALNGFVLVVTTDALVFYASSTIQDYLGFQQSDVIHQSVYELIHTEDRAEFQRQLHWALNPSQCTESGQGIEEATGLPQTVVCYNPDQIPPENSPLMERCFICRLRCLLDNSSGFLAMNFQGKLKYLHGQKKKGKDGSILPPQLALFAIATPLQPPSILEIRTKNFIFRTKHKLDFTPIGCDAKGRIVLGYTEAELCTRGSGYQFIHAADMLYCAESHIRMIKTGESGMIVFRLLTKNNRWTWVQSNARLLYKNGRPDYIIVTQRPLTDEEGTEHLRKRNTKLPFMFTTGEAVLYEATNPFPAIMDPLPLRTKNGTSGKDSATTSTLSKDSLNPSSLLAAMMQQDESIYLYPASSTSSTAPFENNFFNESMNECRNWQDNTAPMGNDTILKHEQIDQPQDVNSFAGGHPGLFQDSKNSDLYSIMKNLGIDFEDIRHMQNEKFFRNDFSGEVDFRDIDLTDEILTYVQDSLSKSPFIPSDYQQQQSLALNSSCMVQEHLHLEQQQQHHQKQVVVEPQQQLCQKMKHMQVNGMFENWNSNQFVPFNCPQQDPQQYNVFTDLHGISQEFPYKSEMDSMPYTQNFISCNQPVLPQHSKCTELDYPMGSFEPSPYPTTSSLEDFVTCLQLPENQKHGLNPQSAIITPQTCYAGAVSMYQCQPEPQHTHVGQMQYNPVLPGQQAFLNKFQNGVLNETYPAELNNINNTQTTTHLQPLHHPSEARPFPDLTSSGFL
The experiment in a line: In vitro assay 3: AHR-regulated CYP1A1 expression in human cell line (U937, quantitative PCR). The class given is cell-based. Particulars: human monocytic U937 cells, CYP1A1 expression induced with 200 μM KA, 6 hours, qPCR; read-out: Assay 3: Hum CYP1A1 Antagonism IC50. The procedure: In Vitro Assay 3: AHR-Regulated CYP1A1 Expression in Human Cell Line
To assess the AHR inhibitory activity of the substances described in this application, the ability thereof to antagonize ligand-induced AHR gene regulation in a dose-dependent manner was quantified. For this purpose, quantitative PCR analysis was used to determine expression of the AHR-regulated gene CYP1A1 in a human monocytic U937 cell line upon stimulation with 200 μM KA in the presence and absence of AHR inhibitor. U937 cells were sown at a concentration of 2×10^5 cells/well in 100 μl of growth medium (RPMI 1640, 20% FCS) in 96-well microtitre plates. CYP1A1 expression was induced with 200 μM KA (positive control) in the presence or absence of the substances for 6 hours. Human U937 cells were typically incubated with eight different concentrations of the substances (1 nM, 3 nM, 10 nM, 30 nM, 100 nM, 300 nM, 1 μM and 3 μM) and analyzed in duplicate on the same microtitre plate. After stimulation, cells were lysed with Nucleic Acid Lysis Solution (#4305895, Applied Biosystems) and RNA was isolated using the 6100 Nucleic Acid Preparation Station (Applied Biosystems) and reverse-transcribed to cDNA using SuperScript VILO cDNA synthesis kit (#11754-250, Invitrogen). Unstimulated cells were used as the negative control. Taqman probes for human CYP1A1 (Hs01054797_g1) and human HPRT (Hs02800695_m1) were used to analyze fold expression of CYP1A1 of HPRT. Quantitation was performed on a Taqman SDS7900HT.
(In general: Quantitative PCR measures a nucleic acid by following its amplification.)

The target of assay [2] is T1, AHR. The assay is described as follows: In vitro assay 1: AHR-luc transactivation assay, antagonism in human cell line (U87 glioblastoma cells, kynurenic acid prestimulated). It is filed as cell-based. Details: U87 glioblastoma cells (ATCC) endogenously expressing AHR; host or cells: U87 glioblastoma cells, stably transfected with DRE-firefly luciferase and renilla reporter constructs only. Particulars: firefly luciferase DRE reporter, 150 μM kynurenic acid, 20 hours, read-out: Assay 1: AHR-luc Hum Antagonism IC50. The procedure: Transactivation Assay in Human Cell Line (In Vitro Assays 1 and 2)
Transactivation assays were carried out in U87 glioblastoma cells (ATCC) endogenously expressing AHR. In addition the cells were stably transfected with an AHR inducible firefly luciferase reporter gene construct that carried AHR-binding sites (DRE) in its promoter and a renilla reporter gene construct with constitutively active promoter. Kynurenic acid is an endogenous AHR activating ligand and was used to prestimulate test cells prior to testing the antagonistic properties of compounds.
In Vitro Assay 1: Antagonism in Human Cell Line
Cells in medium (tryptophan free RPMI, 1% FCS, 2 mM Glutamine) supplemented with 150 μM kynurenic acid were grown for 20 hours in absence (negative control) or presence of increasing concentrations of test compounds (typical dilutions: […], 0.25 nmol/L, 0.89 nmol/L; 3.1 nmol/L, 11 nmol/L, 38 nmol/L, 130 nmol/L, 470 nmol/L, 1.6 μmol/L, 5.7 μmol/L and 20 μmol/L in duplicates). As positive inhibition control cells supplemented with 150 μM kynurenic acid were incubated in presence of 5 μM Staurosporin. Normalization was done by positive and negative controls.
Firefly luciferase and Renilla activity was determined by the DualGlo Luciferase Assay System (Promega, #2920). Renilla activity was used to assess toxic effects of compounds.

Structures are written as SMILES.

For `O=C(N[C@@H]1CS(=O)(=O)C[C@@H]1O)c1cc(-c2ccc(C(F)(F)F)cc2)nn(-c2cccc(F)c2)c1=O` (single isomer, unassigned) [Example 15, (−)-2-(3-fluorophenyl)-N-[(cis)-4-hydroxy-1,1-dioxidotetrahydro-thiophen-3-yl]-3-oxo-6-[4-(trifluoromethyl)phenyl]-2,3-dihydropyridazine-4-carboxamide], the IC50 came to 36.9 nM at AHR [1] and 17.7 nM on AHR [2].

On to `O=C(N[C@H]1CS(=O)(=O)C[C@H]1O)c1cc(-c2ccc(Cl)cc2)nn(-c2cccc(F)c2)c1=O` (single isomer, unassigned) [Example 57, 6-(4-Chlorophenyl)-2-(3-fluorophenyl)-N-[(cis)-4-hydroxy-1,1-dioxidotetrahydrothiophen-3-yl]-3-oxo-2,3-di hydropyridazine-4-carboxamide], for which the half-inhibitory concentration (IC50) at AHR [1] is 17.1 nM; at AHR [2], 5.77 nM.

In the case of `CSC[C@H](C)NC(=O)c1cc(-c2ccc(Cl)cc2)nn(-c2cnn(C)c2)c1=O` [Example 48, 6-(4-Chlorophenyl)-2-(1-methyl-1H-pyrazol-4-yl)-N-[(2S)-1-(methylsulfanyl)propan-2-yl]-3-oxo-2,3-dihydropyridazine-4-carboxamide], the results for the IC50 at AHR [1] and at AHR [2] were 29.9 nM and 15.5 nM, respectively.

Regarding `C[C@@H](C[S+](C)[O-])NC(=O)c1cc(-c2ccc(C(F)(F)F)cc2)nn(-c2cnn(C)c2)c1=O` (single isomer, unassigned) [Example 24], the half-inhibitory concentration (IC50) worked out at 7.56 nM at AHR [1] and 7.54 nM on AHR [2].

For the compound `O=C(N[C@H]1CS(=O)(=O)C[C@H]1O)c1cc(-c2ccc(Cl)cc2)nn(-c2cccc(F)c2)c1=O` (racemic) [Example 55, 6-(4-Chlorophenyl)-2-(3-fluorophenyl)-N-[(cis)-4-hydroxy-1,1-dioxidotetrahydrothiophen-3-yl]-3-oxo-2,3-dihydropyridazine-4-carboxamide], the IC50 on AHR [1] worked out at 27 nM; on AHR [2] it was 26.5 nM.

`C[C@@H](CS(C)(=O)=O)NC(=O)c1cc(-c2ccc(Cl)cc2)nn(-c2cnn(C)c2)c1=O` [Example 50, 6-(4-Chlorophenyl)-2-(1-methyl-1H-pyrazol-4-yl)-N-[(2S)-1-(methylsulfonyl)propan-2-yl]-3-oxo-2,3-di hydropyridazine-4-carboxamide]: the values for the IC50 at AHR [1] and on AHR [2] were 43.7 nM and 30.5 nM, respectively.

In the case of `N=S1(=O)C[C@H](O)[C@H](NC(=O)c2cc(-c3ccc(Cl)cc3)nn(-c3cccc(F)c3)c2=O)C1` (single isomer, unassigned) [Example 45, 6-(4-chlorophenyl)-2-(3-fluorophenyl)-N-[(cis)-4-hydroxy-1-imino-1-oxidotetrahydro-1H-1lambda4-thiophen-3-yl]-3-oxo-2,3-dihydropyridazine-4-carboxamide], the IC50 stood at 756 nM on AHR [1] and 56.9 nM on AHR [2].

`O=C(N[C@@H]1C[S+]([O-])C[C@@H]1O)c1cc(-c2ccc(Cl)cc2)nn(-c2cccc(F)c2)c1=O` (single isomer, unassigned; (-)) [Example 30, (−)-6-(4-chlorophenyl)-2-(3-fluorophenyl)-N-[(cis)-4-hydroxy-1-oxidotetrahydro-thiophen-3-yl]-3-oxo-2,3-dihydropyridazine-4-carboxamide]: the half-inhibitory concentration (IC50) on AHR [2] was 210 nM.

Turning to `C[C@@H](C[S+](C)[O-])NC(=O)c1cc(-c2ccc(Cl)cc2)nn(-c2cccc(F)c2)c1=O` (mixture of isomers) [Example 3, 6-(4-Chlorophenyl)-2-(3-fluorophenyl)-N-[(2S)-1-(methylsulfinyl)propan-2-yl]-3-oxo-2,3-dihydropyridazine-4-carboxamide], on AHR [2], the IC50 stood at 44.2 nM.

As to `O=C(N[C@@H]1CS(=O)(=O)C[C@@H]1O)c1cc(-c2ccc(C(F)(F)F)nc2)nn(-c2cccc(F)c2)c1=O` (relative stereo) [Example 19, 2-(3-fluorophenyl)-N-[(cis)-4-hydroxy-1,1-dioxidotetrahydro-thiophen-3-yl]-3-oxo-6-[6-(trifluoromethyl)pyridin-3-yl]-2,3-dihydropyridazine-4-carboxamide], the IC50 on AHR [2] was determined as 69.9 nM.

As to `O=C(N[C@@H]1C[S+]([O-])C[C@@H]1O)c1cc(-c2ccc(C(F)(F)F)cc2)nn(-c2cccnc2)c1=O` (single isomer, unassigned) [Example 37, N-[(cis)-4-hydroxy-1-oxidotetrahydro-thiophen-3-yl]-3-oxo-2-(pyridin-3-yl)-6-[4-(trifluoromethyl)phenyl]-2,3-dihydropyridazine-4-carboxamide], the IC50 at AHR [2] is 150 nM.

`C[C@@H](CS(C)(=O)=NC(=O)C(F)(F)F)NC(=O)c1cc(-c2ccc(C(F)(F)F)cc2)nn(-c2cnn(C)c2)c1=O` (stereo partly drawn) [Example 41, 2-(1-Methyl-1H-pyrazol-4-yl)-N-{(2S)-1-[S-methyl-N-(trifluoroacetyl)sulfonimidoyl]propan-2-yl}-3-oxo-6-[4-(trifluoromethyl)phenyl]-2,3-dihydropyridazine-4-carboxamide]: the IC50 on AHR [2] stood at 39.2 nM.

In the case of `O=C(N[C@@H]1C[S+]([O-])C[C@@H]1O)c1cc(-c2ccc(Cl)cc2)nn(-c2cccc(F)c2)c1=O` (single isomer, unassigned) [Example 29, 6-(4-chlorophenyl)-2-(3-fluorophenyl)-N-[(cis)-4-hydroxy-1-oxidotetrahydro-thiophen-3-yl]-3-oxo-2,3-dihydropyridazine-4-carboxamide], the IC50 on AHR [2] was determined as 301 nM.

In the case of `C[C@@H](C[S+](C)[O-])NC(=O)c1cc(-c2ccc(Cl)cc2)nn(-c2cccc(F)c2)c1=O` (single isomer, unassigned) [Example 5], the IC50 at AHR [2] was 180 nM.

Take `C[C@@H](C[S+](C)[O-])NC(=O)c1cc(-c2ccc(C(F)(F)F)cc2)nn(-c2cnn(C)c2)c1=O` (single isomer, unassigned) [Example 25]: the IC50 at AHR [2] came out at 41.4 nM.

For `CS(=N)(=O)CCNC(=O)c1cc(-c2ccc(Cl)cc2)nn(-c2cccc(F)c2)c1=O` (stereo not drawn) [Example 52, 6-(4-Chlorophenyl)-2-(3-fluorophenyl)-N-[2-(S-methylsulfonimidoyl)ethyl]-3-oxo-2,3-dihydropyridazine-4-carboxamide], the IC50 on AHR [2] stood at 700 nM.

As for `O=C(N[C@@H]1CS(=O)(=O)C[C@@H]1O)c1cc(-c2ccc(C(F)(F)F)cc2)nn(-c2cnsc2)c1=O` (relative stereo) [Example 10, N-[(cis)-4-hydroxy-1,1-dioxidotetrahydro-thiophen-3-yl]-3-oxo-2-(1,2-thiazol-4-yl)-6-[4-(trifluoromethyl)phenyl]-2,3-dihydropyridazine-4-carboxamdie], the IC50 on AHR [2] was 2.41 nM.

By IC50 is commonly meant the concentration at which inhibition is half-maximal.
